According to article PMC6566410, “Novel Diamide-Based Benzenesulfonamides as Selective Carbonic Anhydrase IX Inhibitors Endowed with Antitumor Activity: Synthesis, Biological Evaluation and In Silico Insights” (International Journal of Molecular Sciences, 2019):

Legend:
hCA I = hCA I (Homo sapiens, UniProt P00915); assay: stopped-flow CO2 hydrase assay
Description: (§3) An Applied Photophysics stopped-flow instrument was used for assaying the CA catalysed CO2 hydration activity, as reported earlier [17]. The inhibition constants were obtained by non-linear least-squares methods using PRISM 3 and the Cheng-Prusoff equation as reported earlier, and represent the mean from at least three different determinations. The four tested CA isofoms were recombinant ones obtained in-house as reported earlier [26, 27, 28, 29].

hCA II = hCA II (Homo sapiens, UniProt P00918); assay: stopped-flow CO2 hydrase assay
Description: as §3

IGROV1 = assay: NCI one-dose SRB assay; assay type: cell-based; settings: Homo sapiens, IGROV-1, IGROV1 (Ovarian Cancer), 1.00E-5 Molar, read-out: Growth Percent
Description: (§1) First, all diamide-based benzenesulfonamides herein reported 5a–h were screened for their antitumor activity at one dose (10^−5 M) assay against a panel of sixty cancer cell lines through the National Cancer Institute (NCI) Developmental Therapeutic Program (www.dtp.nci.nih.gov), according to US-NCI protocol. The cell growth and cell viability were evaluated using the sulforhodamine B (SRB) colorimetric assay.
(§2) This assay was carried out according to the protocol of the Drug Evaluation Branch, NCI, Bethesda. The cell growth and cell viability were evaluated using the sulforhodamine B (SRB) colorimetric assay, as reported earlier.

SF-268 = assay: NCI one-dose SRB assay; assay type: cell-based; settings: Homo sapiens, SF-268 (CNS Cancer), 1.00E-5 Molar, read-out: Growth Percent
Description: as §1, §2

MALME-3M = assay: NCI one-dose SRB assay; assay type: cell-based; settings: Homo sapiens, MALME-3M (Melanoma), 1.00E-5 Molar, read-out: Growth Percent
Description: as §1, §2

UACC-62 = assay: NCI one-dose SRB assay; assay type: cell-based; settings: Homo sapiens, UACC-62 (Melanoma), 1.00E-5 Molar, read-out: Growth Percent
Description: as §1, §2

EKVX = assay: NCI one-dose SRB assay; assay type: cell-based; settings: Homo sapiens, EKVX (Non-Small Cell Lung Cancer), 1.00E-5 Molar, read-out: Growth Percent
Description: as §1, §2

OVCAR-5 = assay: NCI one-dose SRB assay; assay type: cell-based; settings: Homo sapiens, OVCAR-5 (Ovarian Cancer), 1.00E-5 Molar, read-out: Growth Percent
Description: as §1, §2

786-0 = assay: NCI one-dose SRB assay; assay type: cell-based; settings: Homo sapiens, 786-0 (Renal Cancer), 1.00E-5 Molar, read-out: Growth Percent
Description: as §1, §2

SNB-75 = assay: NCI one-dose SRB assay; assay type: cell-based; settings: Homo sapiens, SNB-75 (CNS Cancer), 1.00E-5 Molar, read-out: Growth Percent
Description: as §1, §2

MDA-MB-468 = assay: NCI one-dose SRB assay; assay type: cell-based; settings: Homo sapiens, MDA-MB-468 (Breast Cancer), 1.00E-5 Molar, read-out: Growth Percent
Description: as §1, §2

SF-539 = assay: NCI one-dose SRB assay; assay type: cell-based; settings: Homo sapiens, SF-539 (CNS Cancer), 1.00E-5 Molar, read-out: Growth Percent
Description: as §1, §2

OVCAR-8 = assay: NCI one-dose SRB assay; assay type: cell-based; settings: Homo sapiens, OVCAR-8 (Ovarian Cancer), 1.00E-5 Molar, read-out: Growth Percent
Description: as §1, §2

LOX IMVI = assay: NCI one-dose SRB assay; assay type: cell-based; settings: Homo sapiens, LOX IMVI (Melanoma), 1.00E-5 Molar, read-out: Growth Percent
Description: as §1, §2

SK-MEL-5 = assay: NCI one-dose SRB assay; assay type: cell-based; settings: Homo sapiens, SK-MEL-5 (Melanoma), 1.00E-5 Molar, read-out: Growth Percent
Description: as §1, §2

DU-145 = assay: NCI one-dose SRB assay; assay type: cell-based; settings: Homo sapiens, DU-145 (Prostate Cancer), 1.00E-5 Molar, read-out: Growth Percent
Description: as §1, §2

NCI-H460 = assay: NCI one-dose SRB assay; assay type: cell-based; settings: Homo sapiens, NCI-H460 (Non-Small Cell Lung Cancer), 1.00E-5 Molar, read-out: Growth Percent
Description: as §1, §2

RPMI-8226 = assay: NCI one-dose SRB assay; assay type: cell-based; settings: Homo sapiens, RPMI-8226 (Leukemia), 1.00E-5 Molar, read-out: Growth Percent
Description: as §1, §2

KM12 = assay: NCI one-dose SRB assay; assay type: cell-based; settings: Homo sapiens, KM12 (Colon Cancer), 1.00E-5 Molar, read-out: Growth Percent
Description: as §1, §2

OVCAR-3 = assay: NCI one-dose SRB assay; assay type: cell-based; settings: Homo sapiens, OVCAR-3 (Ovarian Cancer), 1.00E-5 Molar, read-out: Growth Percent
Description: as §1, §2

SK-MEL-28 = assay: NCI one-dose SRB assay; assay type: cell-based; settings: Homo sapiens, SK-MEL-28 (Melanoma), 1.00E-5 Molar, read-out: Growth Percent
Description: as §1, §2

SN12C = assay: NCI one-dose SRB assay; assay type: cell-based; settings: Homo sapiens, SN12C (Renal Cancer), 1.00E-5 Molar, read-out: Growth Percent
Description: as §1, §2

NCI-H23 = assay: NCI one-dose SRB assay; assay type: cell-based; settings: Homo sapiens, NCI-H23 (Non-Small Cell Lung Cancer), 1.00E-5 Molar, read-out: Growth Percent
Description: as §1, §2

SF-295 = assay: NCI one-dose SRB assay; assay type: cell-based; settings: Homo sapiens, SF-295 (CNS Cancer), 1.00E-5 Molar, read-out: Growth Percent
Description: as §1, §2

HCT-116 = assay: NCI one-dose SRB assay; assay type: cell-based; settings: Homo sapiens, HCT-116 (Colon Cancer), 1.00E-5 Molar, read-out: Growth Percent
Description: as §1, §2

MCF7 = assay: NCI one-dose SRB assay; assay type: cell-based; settings: Homo sapiens, MCF7 (Breast Cancer), 1.00E-5 Molar, read-out: Growth Percent
Description: as §1, §2

OVCAR-4 = assay: NCI one-dose SRB assay; assay type: cell-based; settings: Homo sapiens, OVCAR-4 (Ovarian Cancer), 1.00E-5 Molar, read-out: Growth Percent
Description: as §1, §2

HOP-92 = assay: NCI one-dose SRB assay; assay type: cell-based; settings: Homo sapiens, HOP-92 (Non-Small Cell Lung Cancer), 1.00E-5 Molar, read-out: Growth Percent
Description: as §1, §2

A498 = assay: NCI one-dose SRB assay; assay type: cell-based; settings: Homo sapiens, A498 (Renal Cancer), 1.00E-5 Molar, read-out: Growth Percent
Description: as §1, §2

hCA XII = hCA XII (Homo sapiens, UniProt O43570); assay: stopped-flow CO2 hydrase assay; settings: for Selectivity ratio I/XII: KI hCA I / KI hCA XII
Description: as §3

hCA IX = hCA IX (Homo sapiens, UniProt Q16790); assay: stopped-flow CO2 hydrase assay; settings: for Selectivity ratio I/IX: KI hCA I / KI hCA IX; for Selectivity ratio II/IX: KI hCA II / KI hCA IX
Description: as §3

Chain of hCA XII (O43570 25-354): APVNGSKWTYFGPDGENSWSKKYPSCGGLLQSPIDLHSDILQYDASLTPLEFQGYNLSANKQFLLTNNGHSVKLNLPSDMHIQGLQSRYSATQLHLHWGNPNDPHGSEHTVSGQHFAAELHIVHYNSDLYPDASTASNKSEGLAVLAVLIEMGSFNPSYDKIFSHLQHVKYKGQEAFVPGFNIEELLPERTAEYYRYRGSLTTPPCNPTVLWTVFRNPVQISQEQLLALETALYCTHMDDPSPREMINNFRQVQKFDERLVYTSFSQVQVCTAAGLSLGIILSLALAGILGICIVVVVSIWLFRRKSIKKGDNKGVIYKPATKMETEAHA
Chain of hCA I (P00915 whole entry): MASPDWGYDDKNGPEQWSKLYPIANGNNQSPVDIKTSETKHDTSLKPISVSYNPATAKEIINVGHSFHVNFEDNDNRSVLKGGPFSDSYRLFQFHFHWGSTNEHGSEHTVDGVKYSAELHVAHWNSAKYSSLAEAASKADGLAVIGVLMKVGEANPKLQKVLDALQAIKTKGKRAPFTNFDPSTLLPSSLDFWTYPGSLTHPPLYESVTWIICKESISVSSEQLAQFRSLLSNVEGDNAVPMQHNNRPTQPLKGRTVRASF

Compound | Ki (hCA I) | Ki (hCA II) | activity at 10 µM (IGROV1) | activity at 10 µM (SF-268) | activity at 10 µM (MALME-3M) | activity at 10 µM (UACC-62) | activity at 10 µM (EKVX) | activity at 10 µM (OVCAR-5) | activity at 10 µM (786-0) | activity at 10 µM (SNB-75) | activity at 10 µM (MDA-MB-468) | activity at 10 µM (SF-539) | activity at 10 µM (OVCAR-8) | activity at 10 µM (LOX IMVI) | activity at 10 µM (SK-MEL-5) | activity at 10 µM (DU-145) | activity at 10 µM (NCI-H460) | activity at 10 µM (RPMI-8226) | activity at 10 µM (KM12) | activity at 10 µM (OVCAR-3) | further results
Cc1ccc(C=C(NC(=O)c2ccccc2)C(=O)Nc2ccc(S(N)(=O)=O)cc2)cc1 [Compound 5d, N-(3-Oxo-3-((4-sulfamoylphenyl)amino)-1-(p-tolyl)prop-1-en-2-yl)benzamide] | 796 nM | 94.4 nM | 99.2% | 106% | 99% | 99.4% | 108% | 103% | 100% | 92.6% | 111% | 102% | 98.3% | 99% | 97% | 105% | 108% | 107% | 103% | 111% | activity at 10 µM (SK-MEL-28): 118%; activity at 10 µM (SN12C): 94.8%; activity at 10 µM (NCI-H23): 94.9%; activity at 10 µM (SF-295): 106%; activity at 10 µM (HCT-116): 99.3%; activity at 10 µM (MCF7): 104%; activity at 10 µM (OVCAR-4): 90.6%; activity at 10 µM (HOP-92): 109%; activity at 10 µM (A498): 103%; Ki (hCA XII): 60.2 nM; Selectivity ratio I/XII (hCA XII): 13.2; Ki (hCA IX): 62.1 nM; Selectivity ratio I/IX (hCA IX): 12.8; Selectivity ratio II/IX (hCA IX): 1.5
COc1ccc(C=C(NC(=O)c2ccccc2)C(=O)Nc2ccc(S(N)(=O)=O)cc2)cc1 [Compound 5e, N-(1-(4-Methoxyphenyl)-3-oxo-3-((4-sulfamoylphenyl)amino)prop-1-en-2-yl)benzamide] | 1010 nM | 128 nM | 94.5% | 113% | 109% | 92.7% | 105% | 108% | 105% | 95.5% | 108% | 96.8% | 99.4% | 99.1% | 100% | 113% | 105% | 107% | 106% | 111% | activity at 10 µM (SK-MEL-28): 106%; activity at 10 µM (SN12C): 97.1%; activity at 10 µM (NCI-H23): 99.6%; activity at 10 µM (SF-295): 112%; activity at 10 µM (HCT-116): 105%; activity at 10 µM (MCF7): 98.5%; activity at 10 µM (OVCAR-4): 111%; activity at 10 µM (HOP-92): 109%; activity at 10 µM (A498): 102%; Ki (hCA XII): 42.8 nM; Selectivity ratio I/XII (hCA XII): 23.5; Selectivity ratio II/XII (hCA XII; KI hCA II / KI hCA XII): 3; Ki (hCA IX): 78 nM; Selectivity ratio I/IX (hCA IX): 12.9; Selectivity ratio II/IX (hCA IX): 1.5
